Data: paper PMC10960464, “In vivo antimalarial effect of 1-hydroxy-5,6,7-trimethoxyxanthone isolated from Mammea siamensis T. Anders. flowers: pharmacokinetic and acute toxicity studies” (BMC Complementary Medicine and Therapies, 2024)
Values joined by “and” are separate entries in the source; they are usually repeats but may differ in a detail not shown here. Identical values can stand only once. “Also recorded” adds a separate entry of the source. Like-named read-outs stand apart in the source and are kept apart here.

How the values were obtained:
[1] = tested on: Plasmodium berghei ANKA strain; experiment: In vivo 4-day suppressive test of P. berghei in ICR mice; design: species or system Plasmodium berghei (in ICR mice); settings: mean ± SEM, n = 5
Protocol: Wild-type P. berghei ANKA strain was obtained from Thomas F. McCutchan (BEI Resources, NIAID, NIH). P. berghei-infected red blood cells were administered intraperitoneally to donor mice. When parasitemia levels reached 20–30%, blood was collected from the heart using a cardiac puncture procedure and placed in a vacutainer heparinized tube for injection into experimental animals.
A 4-day suppressive test was used to measure the schizonticidal activity of HTX in P. berghei-infected ICR mice. This test was performed according to a previous method, with some modifications. All mice were intraperitoneally injected with 1 × 10^7P. berghei ANKA-parasitized erythrocytes. Treatment was initiated four hours after the mice were infected with Plasmodium parasite on the first day (D0). […] For each experimental group, animals received daily intraperitoneal doses of 1, 3, or 10 mg/kg body weight of HTX. Mice received each substance daily for 4 days (D0-D3). On the fifth day (D4), parasitemia was determined using Giemsa-stained thin blood smears prepared from the tails of each mouse. Mice were euthanized at the end of the experiment by intraperitoneal injection of pentobarbital (200 mg/kg body weight).
Finally, the percentage suppression of parasite growth was calculated using the following equation: [drawing 1]

[2] = cited from earlier work
[3] = In vivo pharmacokinetic study after intraperitoneal administration, plasma LC-MS/MS; settings: 5 mg/kg intraperitoneal, ICR mice, n = 5
Protocol: A pharmacokinetic study was conducted in non-infected ICR mice aged 6–8 weeks and weighing 25–35 g. Male ICR mice were randomly divided into two groups, each consisting of five mice. The first group is a negative control group and was injected with 150 µL of 2% DMSO in NSS, whereas the second group is a test group that was administered 5 mg/kg body weight of HTX compound intraperitoneally. Blood ([…]) was taken from the tail vein prior to administration of test compounds (0 h) and after at, 0.5, 1, 2, 3, 5, 8, 24, 48, and 72 h. Blood samples were collected in microtubes containing ethylenediaminetetraacetic acid (EDTA) and kept on ice until they were centrifuged at 3,000 × g for 10 min at 4 °C to allow the collection of plasma, which was stored at − 80 °C.
LC-MS/MS (Agilent 1290 infinity LC and Agilent 6490 triple quadrupole mass spectrometer) with an electrospray ionization (ESI, Agilent Technologies, USA) source was used to detect HTX in the plasma. Using a VertiSepTM USP C18 column (4.6 mm × 150 mm, particle size = 5 μm; Vertical Chromatography Co., ltd., Nonthaburi, Thailand), the separation was achieved. Acetonitrile:1 mM formic acid (7:3) was used as the mobile phase and was maintained at a constant flow rate of 0.5 mL/min. The injection volume was 1 µL, and column temperature was maintained at 30 °C. The following operating conditions for the MS were optimized: the source temperature was kept at 200 °C, the ion spray voltage for the positive mode was set at 3 KV, and the collision energy for HTX was set at 43 V. Nitrogen was used as the collision gas. The nebulizer and sheath gas flow rates were set to 14 and 11 L/min, respectively. The MassHunter qualitative analysis software was used to acquire the data (Agilent Technologies, Inc. Headquarters, CA, USA). HTX was quantified using the transitions for HTX at m/z 303→199 in the multiple reaction monitoring (MRM) mode.
By dissolving precisely weighed HTX and reference compounds in acetonitrile, stock HTX solutions were prepared. By diluting the stock solutions using a mixture of acetonitrile and water (2:8, v/v), a series of working solutions with concentrations between 7.81 and 1000 ng/mL were prepared. All solutions were stored at 4 °C. By spiking the blank plasma (50 µL) with 25 µL of standard working solutions, HTX calibration standards (0.78, 1.56, 3.13, 6.25, 12.5, 25.0, 50, 125, and 250 ng/mL) were prepared. The extraction solvent ethyl acetate (0.5 mL) was added to 75 µL of HTX-spiked plasma. The sample was vortexed for 1 min, followed by ultrasonic vibration for 15 min. Then, centrifugation for 10 min at 15,000 × g was done. The upper organic layer was transferred to a new microtube and dried via evaporation. The dried extract was reconstituted in 150 µL of 50% (v/v) acetonitrile in water. HTX recovery experiments were performed to confirm extraction efficacy. The effectiveness of liquid-liquid extraction was then determined by comparing the peak regions of the extracted HTX-spiked plasma with those of HTX spiked with blank plasma extract.
The plasma concentration-time profiles of HTX were determined by non-compartmental analysis with PKSolver 2.0 software. […] Additionally, the apparent volume of the central or plasma compartment, apparent volume of the peripheral compartment, transfer rate constant from the central compartment to the peripheral compartment, and transfer rate constant from the peripheral to central compartment were calculated using the two-compartment model.

[4] = tested on: liver and kidney tissues of ICR mice; experiment: Histopathological examination of liver and kidney tissues (H&E) in the acute toxicity test; assay type: in vivo; settings: 50 mg/kg single intraperitoneal dose
Protocol: (§1) Acute HTX toxicity was determined in non-infected ICR mice aged 6–8 weeks and weighing 25–35 g using the Organization for Economic Cooperation and Development standard criteria. Fifteen mice were randomly divided into three groups (n = 5): untreated, negative control, and HTX-treated. All mice fasted for three hours prior to the experiment, and only drinking water was available. HTX was dissolved in 2% DMSO in NSS at 50 mg/kg body weight. In the treatment group, the first mouse was intraperitoneally given a single dose of 50 mg/kg body weight HTX, whereas in the negative control group, the first mouse was intraperitoneally given 200 µL of 2% DMSO in NSS. […] All mice were anaesthetized using pentobarbital (60 mg/kg body weight) by intraperitoneal injection. Blood samples were collected via cardiac puncture into heparinized tubes for biochemical analyses. The liver and kidney tissues were collected for histological examination. The mice were subsequently euthanized with an intraperitoneal injection of pentobarbital (200 mg/kg body weight).
[…]. In brief, all tissues were fixed in 10% buffered formalin, dehydrated using a gradient series of ethanol solutions, cleaned with xylene, and deposited in a paraffin mold. The paraffin blocks were then sectioned to a thickness of 5 μm using a rotary microtome, transferred to glass slides, and stained with hematoxylin and eosin (H&E) solution. […]

non-infected ICR mice = experiment: Acute toxicity test, single intraperitoneal dose, 14-day observation, liver and kidney biochemical parameters; assay type: in vivo
Protocol: as §1

[5] = tested on: Plasmodium falciparum K1 strain; settings: P. falciparum K1 strain (chloroquine-resistant), in vitro; read-out: IC50, antiplasmodial activity; cited from earlier work
[6] = tested on: P. falciparum chloroquine-resistant (FCR3) strain; settings: cited from earlier work
[7] = 3 mg/kg intraperitoneal daily D0-D3, read on D4, P. berghei-infected ICR mice
[8] = 1 mg/kg intraperitoneal daily D0-D3, read on D4, P. berghei-infected ICR mice
[9] = 10 mg/kg intraperitoneal daily D0-D3, read on D4, P. berghei-infected ICR mice

Question: For `C[C@H]1[C@H](OC(=O)CCC(=O)O)O[C@@H]2O[C@@]3(C)CC[C@H]4[C@H](C)CC[C@@H]1[C@@]24OO3` [Artesunate, reference compound], which “% parasitemia” value [1, 7] is on record?
Answer: 3.84 ± 0.54%

Question: And the elimination half-life ([2]; in vivo)?
Answer: 0.8 to 1.2 h

Question: For `CCN(CC)CCCC(C)Nc1ccnc2cc(Cl)ccc12` (stereo not drawn) [Chloroquine, reference compound], which “% parasitemia” value [1, 7] is on record?
Answer: 3.42 ± 0.35%

Question: And the “% suppression” value [1, 7]?
Answer: 92.07 ± 4.21 ^c, d, e %

Question: What about the “% suppression” value ([1]; 3 mg/kg intraperitoneal daily D0-D3, read on D4, P. berghei-infected ICR mice, listed as chloroquine) of the same compound?
Answer: 92.07%

Question: With `COc1cc2c(=O)c3c(O)cccc3oc2c(OC)c1OC` [HTX, 1-hydroxy-5,6,7-trimethoxyxanthone] as the compound, how does the “% parasitemia” value [1, 8] read?
Answer: 21.91 ± 2.25%

Question: What about the “% suppression” value [1, 8] of the same compound?
Answer: 34.56% and 34.56 ± 4.91 ^a, b, d, e %

Question: And the “% parasitemia” value [1, 7]?
Answer: 17.79 ± 2.31%

Question: What about the “% suppression” value [1, 7] of the same compound?
Answer: 46.88% and 46.88 ± 3.96 ^a, b, c, e %

Question: And the “% parasitemia” value [1, 9]?
Answer: 8.62 ± 1.21%

Question: And the “% suppression” value [1, 9]?
Answer: 74.26% and 74.26 ± 3.32 ^a, b, c, d %

Question: And the CL/F ([3]; plasma)?
Answer: 0.020 ± 0.002 (mg/kg)/(ng/mL)/h

Question: What about the “MRT0−∞” value ([3]; plasma) of the same compound?
Answer: 14.79 h and 14.795 ± 0.515 h

Question: And the Vz/F ([3]; plasma)?
Answer: 0.405 ± 0.014 (mg/kg)/(ng/mL)

Question: What about the “t1/2 (elimination half-life)” value ([3]; plasma) of the same compound?
Answer: 13.881 ± 1.231 h

Question: And the “K21 (rate constant, peripheral to central compartment)” value ([3]; two-compartment model)?
Answer: 0.156 ± 0.002 h⁻¹

Question: What about the “V1 (apparent volume, central or plasma compartment)” value ([3]; two-compartment model) of the same compound?
Answer: 1.633 ± 0.003 (mg/kg)/(ng/mL)

Question: What about the “V2 (apparent volume, peripheral compartment)” value ([3]; two-compartment model) of the same compound?
Answer: 19.808 ± 2.031 (mg/kg)/(ng/mL)

Question: And the MRT inf ([3]; male, ICR, mouse, plasma, ip, 5 mg/kg, plasma, read-out: MRT0−∞)?
Answer: 14.8 h

Question: And the half-life ([3]; male, ICR, mouse, plasma, ip, 5 mg/kg, plasma, read-out: t1/2 (elimination half-life) (converted))?
Answer: 13.9 h

Question: And the Cmax ([3]; male, mouse, ip, plasma)?
Answer: 94 ± 3.21 ng/mL

Question: What about the Tmax ([3]; male, mouse, ip, plasma) of the same compound?
Answer: 0.5 ± 0.021 h

Question: And the AUC(0-inf) ([3]; male, mouse, ip, plasma, non-compartmental)?
Answer: 247 ± 5.33 ng·h/mL

Question: What about the AUC(0-t) ([3]; male, mouse, ip, plasma, non-compartmental, read-out: AUC0 − 48 h) of the same compound?
Answer: 226 ± 4.74 ng·h/mL

Question: What about the “kidney histology (H&E)” value [4] of the same compound?
Answer: no histological changes; also recorded: normal; also recorded: did not present with lesions

Question: What about the “liver histology (H&E)” value [4] of the same compound?
Answer: no histological changes; also recorded: normal hepatocyte histology

Question: And the mortality (non-infected ICR mice; 50 mg/kg single intraperitoneal dose, 24 h and following 14 days)?
Answer: No mortality; also recorded: all treated mice were alive; also recorded: did not cause mortality; also recorded: no behavioral changes or mortality

Question: What about the “effect on biochemical parameters of the liver and kidney functions” value (non-infected ICR mice; 50 mg/kg single intraperitoneal dose, versus untreated and negative controls) of the same compound?
Answer: no significant alterations; also recorded: did not affect the liver and kidney functions

Question: And the “median lethal dose (LD50)” value (non-infected ICR mice; intraperitoneal, single dose, 14 days)?
Answer: greater than 50 mg/kg body weight

Question: What about the IC50 [5] of the same compound?
Answer: 9.57 µM

Question: Which elimination half-life ([2]; in vivo) does the source give for `CC(C)(N)CNC(=O)C[C@H]1CC[C@]2(CC1)OO[C@]1(O2)C2CC3CC(C2)CC1C3` [arterolane] here?
Answer: 2 to 4 h

Question: For `C[C@H]1[C@@H](O)O[C@@H]2O[C@@]3(C)CC[C@H]4[C@H](C)CC[C@@H]1[C@@]24OO3` [dihydroartemisinin], which elimination half-life [2] is on record?
Answer: 0.9 to 2 h

Question: For `COc1c(O)cc2oc3cc(O)c(CC=C(C)C)c(O)c3c(=O)c2c1CC=C(C)C` [Α-Mangostin], which IC50 [6] is on record?
Answer: 0.2 µM
